Source: ChEMBL document CHEMBL1131309, “Isoindol-1-one analogues of 4-(2'-methoxyphenyl)-1-[2'-[N-(2"-pyridyl)-p-iodobenzamido]ethyl]pipera zine (p-MPPI) as 5-HT1A receptor ligands” (J Med Chem, 1998)
pKi: −log10 of the molar value. Blank lines part the entries; values can stand above or below the molecule they belong to.

How the values were obtained:
[1] = target: T1, 5-hydroxytryptamine receptor 1A (Rattus norvegicus, UniProt P19327)
T1 sequence (P19327 whole entry): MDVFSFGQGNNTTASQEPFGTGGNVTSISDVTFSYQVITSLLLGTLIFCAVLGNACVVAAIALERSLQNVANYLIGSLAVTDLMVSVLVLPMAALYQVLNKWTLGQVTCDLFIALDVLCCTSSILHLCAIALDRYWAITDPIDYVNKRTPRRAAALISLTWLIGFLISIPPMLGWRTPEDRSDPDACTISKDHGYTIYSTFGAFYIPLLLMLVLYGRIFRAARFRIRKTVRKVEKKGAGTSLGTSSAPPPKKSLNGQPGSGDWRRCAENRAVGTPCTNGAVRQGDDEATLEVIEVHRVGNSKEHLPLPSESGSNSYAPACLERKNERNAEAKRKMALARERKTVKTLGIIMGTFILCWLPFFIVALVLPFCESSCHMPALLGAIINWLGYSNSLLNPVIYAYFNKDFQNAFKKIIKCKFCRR
Description: (§1) In vitro binding affinity for 5-hydroxytryptamine 1A receptor in rat hippocampal membranes by [125I]-labeled agonist displacement.

[2] = tested on: Rattus norvegicus; assay: Biodistribution was measured in blood of rat by injecting the radiolabeled compound intravenously and the value measured after 60 min; assay type: ADME, organism-based; conditions: in vivo, iv, 1 h
[3] = tested on: Rattus norvegicus; assay: Biodistribution was measured in rat cortex by injecting the radiolabeled compound intravenously and the value measured after 60 min; assay type: ADME, organism-based; conditions: in vivo, iv, 1 h
[4] = tested on: Rattus norvegicus; assay: Biodistribution was measured in rat liver by injecting the radiolabeled compound intravenously and the value measured after 60 min; assay type: ADME, organism-based; conditions: in vivo, iv, 1 h
[5] = Biodistribution was measured in hippocampus region(HP/CB) by injecting the radiolabeled compound intravenously and the value measured after 60 min; assay type: ADME, organism-based; conditions: in vivo, iv, 1 h
[6] = tested on: Rattus norvegicus; assay: Biodistribution was measured in rat heart by injecting the radiolabeled compound intravenously and the value measured after 30 min; assay type: ADME, organism-based; conditions: in vivo, iv, 0.5 h
[7] = tested on: Rattus norvegicus; assay: Biodistribution was measured in rat cerebellum by injecting the radiolabeled compound intravenously and the value measured after 2 min; assay type: ADME, organism-based; conditions: in vivo, iv
[8] = tested on: Rattus norvegicus; assay: Biodistribution was measured in rat cerebellum by injecting the radiolabeled compound intravenously and the value measured after 60 min; assay type: ADME, organism-based; conditions: in vivo, iv, 1 h
[9] = tested on: Rattus norvegicus; assay: Biodistribution was measured in rat hippocampus by injecting the radiolabeled compound intravenously and the value measured after 30 min; assay type: ADME, organism-based; conditions: in vivo, iv, 0.5 h
[10] = tested on: Rattus norvegicus; assay: Biodistribution was measured in rat skin by injecting the radiolabeled compound intravenously and the value measured after 60 min; assay type: ADME, organism-based, Zone of skin; conditions: in vivo, iv, 1 h
[11] = tested on: Rattus norvegicus; assay: Biodistribution was measured in rat striatum by injecting the radiolabeled compound intravenously and the value measured after 30 min; assay type: ADME, organism-based; conditions: in vivo, iv, 0.5 h
[12] = tested on: Rattus norvegicus; assay: Biodistribution was measured in rat brain by injecting the radiolabeled compound intravenously and the value measured after 60 min; assay type: ADME, organism-based; conditions: in vivo, iv, 1 h
[13] = tested on: Rattus norvegicus; assay: Biodistribution was measured in rat striatum by injecting the radiolabeled compound intravenously and the value measured after 2 min; assay type: ADME, organism-based; conditions: in vivo, iv
[14] = tested on: Rattus norvegicus; assay: Biodistribution was measured in rat muscle by injecting the radiolabeled compound intravenously and the value measured after 2 min; assay type: ADME, organism-based, Muscle tissue; conditions: in vivo, iv
[15] = tested on: Rattus norvegicus; assay: Biodistribution was measured in rat cortex by injecting the radiolabeled compound intravenously and the value measured after 2 min; assay type: ADME, organism-based; conditions: in vivo, iv
[16] = tested on: Rattus norvegicus; assay: Biodistribution was measured in rat spleen by injecting the radiolabeled compound intravenously and the value measured after 30 min; assay type: ADME, organism-based; conditions: in vivo, iv, 0.5 h
[17] = tested on: Rattus norvegicus; assay: Biodistribution was measured in rat hippocampus by injecting the radiolabeled compound intravenously and the value measured after 2 min; assay type: ADME, organism-based; conditions: in vivo, iv
[18] = tested on: Rattus norvegicus; assay: Biodistribution was measured in rat kidney by injecting the radiolabeled compound intravenously and the value measured after 2 min; assay type: ADME, organism-based; conditions: in vivo, iv
[19] = tested on: Rattus norvegicus; assay: Biodistribution was measured in rat lung by injecting the radiolabeled compound intravenously and the value measured after 2 min; assay type: ADME, organism-based; conditions: in vivo, iv
[20] = tested on: Rattus norvegicus; assay: Biodistribution was measured in rat liver by injecting the radiolabeled compound intravenously and the value measured after 2 min; assay type: ADME, organism-based; conditions: in vivo, iv
[21] = tested on: Rattus norvegicus; assay: Biodistribution was measured in rat thyroid by injecting the radiolabeled compound intravenously and the value measured after 30 min; assay type: ADME, organism-based, Thyroid gland; conditions: in vivo, iv, 0.5 h
[22] = tested on: Rattus norvegicus; assay: Biodistribution was measured in blood of rat by injecting the radiolabeled compound intravenously and the value measured after 30 min; assay type: ADME, organism-based; conditions: in vivo, iv, 0.5 h
[23] = tested on: Rattus norvegicus; assay: Biodistribution was measured in rat lung by injecting the radiolabeled compound intravenously and the value measured after 30 min; assay type: ADME, organism-based; conditions: in vivo, iv, 0.5 h
[24] = tested on: Rattus norvegicus; assay: Biodistribution was measured in rat kidney by injecting the radiolabeled compound intravenously and the value measured after 30 min; assay type: ADME, organism-based; conditions: in vivo, iv, 0.5 h
[25] = tested on: Rattus norvegicus; assay: Biodistribution was measured in rat muscle by injecting the radiolabeled compound intravenously and the value measured after 30 min; assay type: ADME, organism-based, Muscle tissue; conditions: in vivo, iv, 0.5 h
[26] = tested on: Rattus norvegicus; assay: Biodistribution was measured in rat thyroid by injecting the radiolabeled compound intravenously and the value measured after 60 min; assay type: ADME, organism-based, Thyroid gland; conditions: in vivo, iv, 1 h
[27] = tested on: Rattus norvegicus; assay: Biodistribution was measured in rat spleen by injecting the radiolabeled compound intravenously and the value measured after 60 min; assay type: ADME, organism-based; conditions: in vivo, iv, 1 h
[28] = tested on: Rattus norvegicus; assay: Biodistribution was measured in rat striatum by injecting the radiolabeled compound intravenously and the value measured after 60 min; assay type: ADME, organism-based; conditions: in vivo, iv, 1 h
[29] = tested on: Rattus norvegicus; assay: Biodistribution was measured in rat hippocampus by injecting the radiolabeled compound intravenously and the value measured after 60 min; assay type: ADME, organism-based; conditions: in vivo, iv, 1 h
[30] = tested on: Rattus norvegicus; assay: Biodistribution was measured in rat muscle by injecting the radiolabeled compound intravenously and the value measured after 60 min; assay type: ADME, organism-based, Muscle tissue; conditions: in vivo, iv, 1 h
[31] = tested on: Rattus norvegicus; assay: Biodistribution was measured in rat skin by injecting the radiolabeled compound intravenously and the value measured after 30 min; assay type: ADME, organism-based, Zone of skin; conditions: in vivo, iv, 0.5 h
[32] = Biodistribution was measured in hippocampus region(HP/CB) by injecting the radiolabeled compound intravenously and the value measured after 30 min; assay type: ADME, organism-based; conditions: in vivo, iv, 0.5 h
[33] = tested on: Rattus norvegicus; assay: Biodistribution was measured in rat liver by injecting the radiolabeled compound intravenously and the value measured after 30 min; assay type: ADME, organism-based; conditions: in vivo, iv, 0.5 h
[34] = tested on: Rattus norvegicus; assay: Biodistribution was measured in blood of rat by injecting the radiolabeled compound intravenously and the value measured after 2 min; assay type: ADME, organism-based; conditions: in vivo, iv
[35] = tested on: Rattus norvegicus; assay: Biodistribution was measured in rat cortex by injecting the radiolabeled compound intravenously and the value measured after 30 min; assay type: ADME, organism-based; conditions: in vivo, iv, 0.5 h
[36] = tested on: Rattus norvegicus; assay: Biodistribution was measured in rat thyroid by injecting the radiolabeled compound intravenously and the value measured after 2 min; assay type: ADME, organism-based, Thyroid gland; conditions: in vivo, iv
[37] = tested on: Rattus norvegicus; assay: Biodistribution was measured in rat brain by injecting the radiolabeled compound intravenously and the value measured after 30 min; assay type: ADME, organism-based; conditions: in vivo, iv, 0.5 h
[38] = Biodistribution was measured in hippocampus region(HP/CB) by injecting the radiolabeled compound intravenously and the value measured after 2 min; assay type: ADME, organism-based; conditions: in vivo, iv
[39] = tested on: Rattus norvegicus; assay: Biodistribution was measured in rat heart by injecting the radiolabeled compound intravenously and the value measured after 2 min; assay type: ADME, organism-based; conditions: in vivo, iv
[40] = tested on: Rattus norvegicus; assay: Biodistribution was measured in rat lung by injecting the radiolabeled compound intravenously and the value measured after 60 min; assay type: ADME, organism-based; conditions: in vivo, iv, 1 h
[41] = tested on: Rattus norvegicus; assay: Biodistribution was measured in rat spleen by injecting the radiolabeled compound intravenously and the value measured after 2 min; assay type: ADME, organism-based; conditions: in vivo, iv
[42] = target: T1, 5-hydroxytryptamine receptor 1A; remark: listed apart in the source
Description: as §1

[43] = tested on: Rattus norvegicus; assay: Biodistribution was measured in rat kidney by injecting the radiolabeled compound intravenously and the value measured after 60 min; assay type: ADME, organism-based; conditions: in vivo, iv, 1 h
[44] = tested on: Rattus norvegicus; assay: Biodistribution was measured in rat brain by injecting the radiolabeled compound intravenously and the value measured after 2 min; assay type: ADME, organism-based; conditions: in vivo, iv
[45] = tested on: Rattus norvegicus; assay: Biodistribution was measured in rat heart by injecting the radiolabeled compound intravenously and the value measured after 60 min; assay type: ADME, organism-based; conditions: in vivo, iv, 1 h
[46] = tested on: Rattus norvegicus; assay: Biodistribution was measured in rat cerebellum by injecting the radiolabeled compound intravenously and the value measured after 30 min; assay type: ADME, organism-based; conditions: in vivo, iv, 0.5 h

pKi [1]: 8.05
Compound: COc1ccccc1N1CCN(CCn2c(=O)c3ccccc3c3ccccc32)CC1

pKi [1]: 7.83
Compound: COc1ccccc1N1CCN(CCN2Cc3ccccc3C2=O)CC1

Biodistribution [2]: 2.08 % dose organ-1 | Biodistribution [3]: 0.048 % dose organ-1 | Biodistribution [4]: 17.95 % dose organ-1 | Biodistribution [5]: 0.88 % dose organ-1 | Biodistribution [6]: 0.33 % dose organ-1 | Biodistribution [7]: 0.46 % dose organ-1 | Biodistribution [8]: 0.051 % dose organ-1 | Biodistribution [9]: 0.13 % dose organ-1 | Biodistribution [10]: 6.93 % dose organ-1 | Biodistribution [11]: 0.15 % dose organ-1 | Biodistribution [12]: 0.08 % dose organ-1 | Biodistribution [13]: 0.55 % dose organ-1 | Biodistribution [14]: 14.07 % dose organ-1 | pKi [1]: 8.60 | Biodistribution [15]: 0.57 % dose organ-1 | Biodistribution [16]: 0.22 % dose organ-1 | Biodistribution [17]: 0.47 % dose organ-1 | Biodistribution [18]: 3.02 % dose organ-1 | Biodistribution [19]: 1.54 % dose organ-1 | Biodistribution [20]: 19.49 % dose organ-1 | Biodistribution [21]: 0.04 % dose organ-1 | Biodistribution [22]: 3.45 % dose organ-1 | Biodistribution [23]: 0.75 % dose organ-1 | Biodistribution [24]: 2.2 % dose organ-1 | Biodistribution [25]: 19.08 % dose organ-1 | Biodistribution [26]: 0.03 % dose organ-1 | Biodistribution [27]: 0.15 % dose organ-1 | Biodistribution [28]: 0.053 % dose organ-1 | Biodistribution [29]: 0.045 % dose organ-1 | Biodistribution [30]: 9.05 % dose organ-1 | Biodistribution [31]: 7.41 % dose organ-1 | Biodistribution [32]: 1.08 % dose organ-1 | Biodistribution [33]: 23.02 % dose organ-1 | Biodistribution [34]: 5.6 % dose organ-1 | Biodistribution [35]: 0.14 % dose organ-1 | Biodistribution [36]: 0.06 % dose organ-1 | Biodistribution [37]: 0.21 % dose organ-1 | Biodistribution [38]: 1.02 % dose organ-1 | Biodistribution [39]: 0.77 % dose organ-1 | Biodistribution [40]: 0.42 % dose organ-1 | Biodistribution [41]: 0.27 % dose organ-1 | pKi [42]: 8.60 | Biodistribution [43]: 1 % dose organ-1 | Biodistribution [44]: 0.71 % dose organ-1 | Biodistribution [45]: 0.18 % dose organ-1 | Biodistribution [46]: 0.12 % dose organ-1
Compound: COc1ccccc1N1CCN(CCN2C(=O)CCC2c2ccc(I)cc2)CC1 (stereo not drawn)
